Several values for one entry are separate records, joined by “and”; a condition that tells them apart may be missing. Equal entries are not always repeated.
Key:
Assay in all cases: MIC / FIC index synergy test, 96-well microplate, optical density at 620 nm
Format in all cases: cell-based
[1] = tested on: Staphylococcus aureus ATCC 6538; details: compound alone; for MIC alone: first concentration giving growth <= 25%
Source text: (§1) FIC Index=([…]) with: • MICa with B: minimum concentration of product A in the combination A+B which makes it possible to obtain an inhibitory effect • MICb with A: minimum concentration of product B in the combination A+B which makes it possible to obtain an inhibitory effect. • MICa: minimum inhibitory concentration of product A alone. • MICb: minimum inhibitory concentration of product B alone. […] As regards the combinations tested, MICa with b and MICb with a are the respective concentrations of A and of B in the combinations which make it possible to obtain a microbial growth percentage of less than or equal to 25%. When the FIC index value is less than or equal to 1, it is considered that the combination of test compounds has a synergistic effect. The microbial strain Staphylococcus aureus ATCC 6538 and a double-concentration nutritive broth liquid culture medium were used. A 96-well microplate and an incubation temperature of 32.5° C. are used. […] Successive dilutions were made with the 1‰ agar solution. 50 μl of each of the daughter solutions obtained containing compound A or B are added to the microplate wells. 100 μl of Sabouraud liquid nutrient broth inoculated at double concentration with the strain Candida albicans and 50 μl of aqueous 1‰ agar solution are also added thereto. 50 μl of each of the daughter solutions obtained containing compound A and 50 μl of each of the daughter solutions obtained containing compound B are added to the microplate wells. 100 μl of Sabouraud liquid nutrient broth inoculated at double concentration with the strain Candida albicans are also added thereto. […] The test as described above (tests, absorbance controls and growth control) was performed again to test the combination A+B on the following strains Enterococcus faecalis, Staphylococcus aureus, Pseudomonas aeruginosa, Candida albicans.

[2] = tested on: Candida albicans ATCC 10231; details: compound alone; for MIC alone: first concentration giving growth <= 25%
Source text: FIC Index=([…]) with: • MICa with B: minimum concentration of product A in the combination A+B which makes it possible to obtain an inhibitory effect • MICb with A: minimum concentration of product B in the combination A+B which makes it possible to obtain an inhibitory effect. • MICa: minimum inhibitory concentration of product A alone. • MICb: minimum inhibitory concentration of product B alone. […] The microbial strain Candida albicans ATCC 10231 and a double-concentration Sabouraud broth liquid culture medium were used. A 96-well microplate and an incubation temperature of 32.5° C. are used. […] Successive dilutions were made with the 1‰ agar solution. 50 μl of each of the daughter solutions obtained containing compound A or B are added to the microplate wells. 100 μl of Sabouraud liquid nutrient broth inoculated at double concentration with the strain Candida albicans and 50 μl of aqueous 1‰ agar solution are also added thereto. 50 μl of each of the daughter solutions obtained containing compound A and 50 μl of each of the daughter solutions obtained containing compound B are added to the microplate wells. 100 μl of Sabouraud liquid nutrient broth inoculated at double concentration with the strain Candida albicans are also added thereto. In the two cases (test and control), the inoculum represents the concentration of the strain Candida albicans present in the final volume of the wells (200 μl) and is between 2 and 6χ 10^5 cfu/ml of Candida albicans.

[3] = tested on: Pseudomonas aeruginosa ATCC 9027; details: for microbial growth percentage: compound alone; for MIC of compound alone: first concentration giving growth <= 25%
Source text: as §1, with “25%. […]” for “25%. When the FIC index value is less than or equal to 1, it is considered that the combination of test compounds has a synergistic effect.”, “strain Pseudomonas aeruginosa” for “strain Staphylococcus aureus”, “ATCC 9027” for “ATCC 6538”

[4] = tested on: Aspergillus niger ATCC 6275
[5] = tested on: Enterococcus faecalis ATCC 33186; details: compound alone; for % MIC alone: first concentration giving growth <= 25%
Source text: as §1, with “25%. […]” for “25%. When the FIC index value is less than or equal to 1, it is considered that the combination of test compounds has a synergistic effect.”, “strain Enterococcus faecalis” for “strain Staphylococcus aureus”, “ATCC 33186” for “ATCC 6538”, “double-concentration BHI (Brain Heart Infusion)” for “double-concentration nutritive”

[6] = compound alone, 0.0025 weight %
[7] = first concentration giving growth <= 25%

## CCOc1cc(CCC(C)=O)ccc1O [A, 4-(3-ethoxy-4-hydroxyphenyl)butan-2-one]
[1]; 0.0625 weight %
  microbial growth percentage: 67% and 63% and 66%
[1]; 0.125 weight %
  microbial growth percentage: 65% and 60% and 61%
[1]; 0.25 weight %
  microbial growth percentage: 55% and 52% and 51%
[1]; 0.5 weight %
  microbial growth percentage: 5% and 1%
[1]
  MIC alone: 0.5 weight %
[2]; 0.025 weight %
  microbial growth percentage: 55% and 56% and 61% and 74% and 53%
[2]; 0.2 weight %
  microbial growth percentage: 6%
[2]
  MIC alone: 0.1 weight % and 0.2 weight %
[3]; 0.25 weight %
  microbial growth percentage: 79% and 78% and 87%
[3]; 0.5 weight %
  microbial growth percentage: 74% and 52% and 64%
[4]; [6]
  microbial growth percentage: 84%
[4]; compound alone, 0.025 weight %
  microbial growth percentage: 65% and 62%
[4]; compound alone, 0.05 weight %
  microbial growth percentage: 40% and 32%
[4]; compound alone, 0.0625 weight %
  microbial growth percentage: 84% and 96%
[4]; compound alone, 0.125 weight %
  microbial growth percentage: 40% and 41%
[4]; compound alone, 0.25 weight %
  microbial growth percentage: 6% and 7%
[4]; compound alone, 0.4 weight %
  microbial growth percentage: 5%
[4]; [7]
  MIC of compound alone: 0.25 weight % and 0.1 weight % and 0.4 weight % and 0.2 weight %
[5]; 1 weight %
  microbial growth percentage: 15% and 28% and 16%
[5]; 2 weight %
  microbial growth percentage: 24%
[5]
  % MIC alone: 1 weight % and 2 weight %

## O=C([O-])c1ccccc1.[Na+] [B1, sodium benzoate]
[1]; 0.0625 weight %
  microbial growth percentage: 51%
[1]; 0.125 weight %
  microbial growth percentage: 34%
[1]; 0.25 weight %
  microbial growth percentage: 31%
[1]; 0.5 weight %
  microbial growth percentage: 5%
[1]
  MIC alone: 0.5 weight %
[2]; 0.025 weight %
  microbial growth percentage: 55%
[2]; 0.05 weight %
  microbial growth percentage: 33%
[2]; 0.1 weight %
  microbial growth percentage: 24%
[2]; 0.2 weight %
  microbial growth percentage: 11%
[2]
  MIC alone: 0.2 weight %
[3]; 0.0625 weight %
  microbial growth percentage: 93%
[3]; 0.125 weight %
  microbial growth percentage: 96%
[3]; 0.25 weight %
  microbial growth percentage: 116%
[3]; 0.5 weight %
  microbial growth percentage: 89%
[3]; 1 weight %
  microbial growth percentage: 0%
[3]
  MIC of compound alone: 1 weight %

## C/C=C/C=C/C(=O)O [B2, sorbic acid]
[1]; 0.125 weight %
  microbial growth percentage: 52%
[1]; 0.25 weight %
  microbial growth percentage: 28%
[1]; 0.5 weight %
  microbial growth percentage: −5%
[1]
  MIC alone: 0.5 weight %
[2]; 0.025 weight %
  microbial growth percentage: 37%
[2]; 0.05 weight %
  microbial growth percentage: 24%
[2]; 0.1 weight %
  microbial growth percentage: 21%
[2]
  MIC alone: 0.1 weight %
[3]
  MIC of compound alone: 0.5 weight %
[4]; compound alone, 0.0125 weight %
  microbial growth percentage: 98%
[4]; compound alone, 0.25 weight %
  microbial growth percentage: 95%
[4]; compound alone, 0.5 weight %
  microbial growth percentage: 8%
[4]; [7]
  MIC of compound alone: 0.5 weight %
[5]; 0.25 weight %
  microbial growth percentage: 53%
[5]; 0.5 weight %
  microbial growth percentage: 78%
[5]; 1 weight %
  microbial growth percentage: 0%
[5]
  % MIC alone: 1 weight %

## C/C=C/C=C/C(=O)[O-].[K+] [B3, potassium sorbate]
[4]; compound alone, 0.025 weight %
  microbial growth percentage: 58%
[4]; compound alone, 0.05 weight %
  microbial growth percentage: 37%
[4]; compound alone, 0.1 weight %
  microbial growth percentage: 10%
[4]; compound alone, first concentration giving growth <= 25%
  % MIC alone: 0.1 weight %
[5]; 1 weight %
  microbial growth percentage: 22%
[5]; 2 weight %
  microbial growth percentage: 10%
[5]
  % MIC alone: 2 weight %

## COC(=O)c1ccc(O)cc1 [B4, methyl 4-hydroxybenzoate]
[1]; 0.25 weight %
  microbial growth percentage: 51%
[1]; 0.5 weight %
  microbial growth percentage: 44%
[1]; 1 weight %
  microbial growth percentage: 19%
[1]
  MIC alone: 1 weight %
[2]; 0.025 weight %
  microbial growth percentage: 67%
[2]; 0.05 weight %
  microbial growth percentage: 40%
[2]; 0.1 weight %
  microbial growth percentage: 28%
[2]; 0.2 weight %
  microbial growth percentage: 12%
[2]
  MIC alone: 0.2 weight %
[3]; 0.0625 weight %
  microbial growth percentage: 187%
[3]; 0.125 weight %
  microbial growth percentage: 150%
[3]; 0.25 weight %
  microbial growth percentage: 142%
[3]; 0.5 weight %
  microbial growth percentage: 1%
[3]
  MIC of compound alone: 0.5 weight %

## CCCOC(=O)c1ccc(O)cc1 [B5, propyl 4-hydroxybenzoate]
[2]; 0.025 weight %
  microbial growth percentage: 52%
[2]; 0.05 weight %
  microbial growth percentage: 33%
[2]; 0.1 weight %
  microbial growth percentage: 21%
[2]
  MIC alone: 0.1 weight %
[3]; 0.125 weight %
  microbial growth percentage: 76%
[3]; 0.25 weight %
  microbial growth percentage: 45%
[3]; 0.5 weight %
  microbial growth percentage: 42%
[3]; 1 weight %
  microbial growth percentage: 24%
[3]
  MIC of compound alone: 1 weight %

## CCCCCCCC(=O)c1ccc(O)c(C(=O)O)c1 [B6, 5-n-octanoylsalicylic acid]
[2]; 0.0125 weight %
  microbial growth percentage: 66%
[2]; 0.025 weight %
  microbial growth percentage: 40%
[2]; 0.05 weight %
  microbial growth percentage: 30%
[2]; 0.1 weight %
  microbial growth percentage: 1%
[2]
  MIC alone: 0.1 weight %
[4]; compound alone, 0.025 weight %
  microbial growth percentage: 98%
[4]; compound alone, 0.05 weight %
  microbial growth percentage: 97%
[4]; compound alone, 0.1 weight %
  microbial growth percentage: 17%
[4]; [7]
  MIC of compound alone: 0.1 weight %
[5]; 0.0125 weight %
  microbial growth percentage: 28%
[5]; 0.025 weight %
  microbial growth percentage: 2%
[5]
  % MIC alone: 0.025 weight %

## CC(=O)c1c([O-])cc(C)oc1=O.[Na+] [B8, sodium dehydroacetate]
[2]; 0.00125 weight %
  microbial growth percentage: 28%
[2]; 0.0025 weight %
  microbial growth percentage: 15%
[2]
  MIC alone: 0.0025 weight %
[4]; [6]
  microbial growth percentage: 97%
[4]; compound alone, 0.005 weight %
  microbial growth percentage: 29%
[4]; compound alone, 0.01 weight %
  microbial growth percentage: 3%
[4]; compound alone, 0.02 weight %
  microbial growth percentage: 3%
[4]; [7]
  MIC of compound alone: 0.02 weight %

— patent publication US20230247991A1, “ANTIMICROBIAL MIXTURE CONTAINING 4-(3-ETHOXY-4-HYDROXYPHENYL)BUTAN-2-ONE AND AN ORGANIC ACID COMPOUND, AND COSMETIC COMPOSITION CONTAINING SAME” (L'OREAL, priority 2017, published 2023)
